The record followed here is patent US12281122B1, “PI3K inhibitors” (Cogent Biosciences, Inc., priority 2023, dated 2025).

A value given as a limit tells only on which side of the number the result lay.

For test [1], the system named is T47D (PI3Kα-H1047R) cell line. The test is described as follows: HTRF phospho-AKT(S473) cell assay in T47D cells. The test is classed as cell-based, human. The procedure, abridged:
(§1)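 T47D: RPMI + 10% FBS + 0.2 units/mL insulin, top 5 μM. SKBR3: McCoy's 5A + 10% FBS, top 10 μM, 70 ng/ml PDGF-BB last 15 min. Both: 12-pt 1:3, 2 h, 37° C, max 0.5% DMSO; HTRF pAKT(S473); IC50.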
On the technique in general: TR-FRET usually uses a lanthanide donor and a delayed reading to cut background.

In test [2] the test system is SKBR3 (PI3Kα-Wild Type) cell line. The test is described as follows: HTRF phospho-AKT(S473) cell assay in SKBR3 cells. Type of test: cell-based, human. The procedure, abridged: as §1
Where [3] appears, read: Homo sapiens; T47D (PI3Kα-H1047R) cells, HTRF phospho-AKT(S473), 2 hours compound incubation.
[4] abbreviates: Homo sapiens, SK-BR-3; SKBR3 (PI3Kα-Wild Type) cells, HTRF phospho-AKT(S473), 2 hours compound incubation, PDGF-BB stimulated.
[5] abbreviates: Homo sapiens; HTRF phospho-AKT(S473), T47D (PI3Kα-H1047R) cells, 2 hours compound incubation.
Where [6] appears, read: Homo sapiens, SK-BR-3; HTRF phospho-AKT(S473), SKBR3 (PI3Kα-Wild Type) cells, 2 hours compound incubation, PDGF-BB stimulated.

The term IC50 denotes the concentration at which inhibition is half-maximal. The low end stands for inhibition by little substance, the high end for a need for much substance. For the molecule `C[C@@H](Nc1ccc(Cl)nc1C(=O)NS(C)(=O)=O)c1cc(C2CC2)cc2c(=O)n(C)c(N3C[C@@H]4[C@H](C3)[C@H]4c3cnn(C)c3)nc12` [Compound 386, 6-chloro-3-(((R)-1-(6-cyclopropyl-3-methyl-2-((1R,5S,6S)-6-(1-methyl-1H-pyrazol-4-yl)-3-azabicyclo[3.1.0]hexan-3-yl)-4-oxo-3,4-dihydroquinazolin-8-yl)ethyl)amino)-N-(methylsulfonyl) picolinamide], the results for the IC50 in test [1] (setting [3]) and in test [2] (setting [4]) were below 0.25 µM and 1 to 5 µM, respectively.
For the molecule `Cc1cc([C@@H](C)Nc2ccc(Cl)nc2C(=O)NS(C)(=O)=O)c2nc(N3CCc4oncc4C3)n(C)c(=O)c2c1` [Compound 276, (R)-6-chloro-3-((1-(2-(6,7-dihydroisoxazolo[4,5-c]pyridin-5(4H)-yl)-3,6-dimethyl-4-oxo-3,4-dihydroquinazolin-8-yl)ethyl)amino)-N-(methylsulfonyl) picolinamide], the IC50 is below 0.25 µM in test [1] (setting [3]) and 1 to 5 µM in test [2] (setting [4]).
Regarding `Cc1cnc(N2CCN(c3nc4c([C@@H](C)Nc5ccc(Cl)nc5C(=O)NS(C)(=O)=O)cc(C)cc4c(=O)n3C)CC2)nc1` [Compound 532, (R)-6-chloro-3-((1-(3,6-dimethyl-2-(4-(5-methylpyrimidin-2-yl)piperazin-1-yl)-4-oxo-3,4-dihydroquinazolin-8-yl)ethyl)amino)-N-(methylsulfonyl) picolinamide], the IC50 in test [1] (setting [5]) was 0.25 to 0.5 µM; in test [2] (setting [6]) it was at least 5 µM.
`Cc1cc([C@@H](C)Nc2ccc(Cl)nc2C(=O)NS(C)(=O)=O)c2nc(N3CCC(c4nnc(C)s4)CC3)n(C)c(=O)c2c1` [Compound 558, (R)-6-chloro-3-((1-(3,6-dimethyl-2-(4-(5-methyl-1,3,4-thiadiazol-2-yl)piperidin-1-yl)-4-oxo-3,4-dihydroquinazolin-8-yl)ethyl)amino)-N-(methylsulfonyl) picolinamide]: the IC50 was below 0.25 µM in test [1] (setting [5]) and 1 to 5 µM in test [2] (setting [6]).
Consider `COc1cc(C2CCN(c3nc4c([C@@H](C)Nc5ccc(Cl)nc5C(=O)NS(C)(=O)=O)cc(C)cc4c(=O)n3C)CC2)nn1C` [Compound 704, (R)-6-chloro-3-((1-(2-(4-(5-methoxy-1-methyl-1H-pyrazol-3-yl)piperidin-1-yl)-3,6-dimethyl-4-oxo-3,4-dihydroquinazolin-8-yl)ethyl)amino)-N-(methylsulfonyl) picolinamide], for which the IC50 is 0.25 to 0.5 µM in test [1] (setting [5]) and at least 5 µM in test [2] (setting [6]).
On to `Cc1cc([C@@H](C)Nc2ccc(Cl)nc2C(=O)NS(C)(=O)=O)c2nc(N3CCC(c4csc(C)n4)CC3)n(C)c(=O)c2c1` [Compound 503, (R)-6-chloro-3-((1-(3,6-dimethyl-2-(4-(2-methylthiazol-4-yl)piperidin-1-yl)-4-oxo-3,4-dihydroquinazolin-8-yl)ethyl)amino)-N-(methylsulfonyl) picolinamide], for which the IC50 in test [1] (setting [5]) was below 0.25 µM; in test [2] (setting [6]), 1 to 5 µM.
On to `Cc1cc([C@@H](C)Nc2ccc(Cl)nc2C(=O)NS(C)(=O)=O)c2nc(N3CCC[C@@H](Oc4ccc(C)nc4)C3)n(C)c(=O)c2c1` [Compound 368, 6-chloro-3-(((R)-1-(3,6-dimethyl-2-((R)-3-((6-methylpyridin-3-yl)oxy)piperidin-1-yl)-4-oxo-3,4-dihydroquinazolin-8-yl)ethyl)amino)-N-(methylsulfonyl) picolinamide], for which the IC50 is 0.25 to 0.5 µM in test [1] (setting [3]) and at least 5 µM in test [2] (setting [4]).
Regarding `Cc1cc([C@@H](C)Nc2ccc(Cl)nc2C(=O)NS(C)(=O)=O)c2nc(N3CCC[C@@H](c4ccncc4)C3)n(C)c(=O)c2c1` (relative stereo) [Compound 207, 6-chloro-3-(((R)-1-(3,6-dimethyl-4-oxo-2-((R*)-3-(pyridin-4-yl)piperidin-1-yl)-3,4-dihydroquinazolin-8-yl)ethyl)amino)-N-(methylsulfonyl) picolinamide], the figures for the IC50 in test [1] (setting [3]) and in test [2] (setting [4]) were below 0.25 µM and 1 to 5 µM, respectively.
Turning to `Cc1cc([C@@H](C)Nc2ccc(Cl)nc2C(=O)NS(C)(=O)=O)c2nc(N3Cc4cn(-c5ccccn5)nc4C3)n(C)c(=O)c2c1` [Compound 688, (R)-6-chloro-3-((1-(3,6-dimethyl-4-oxo-2-(2-(pyridin-2-yl)-2,6-dihydropyrrolo[3,4-c]pyrazol-5(4H)-yl)-3,4-dihydroquinazolin-8-yl)ethyl)amino)-N-(methylsulfonyl) picolinamide], the IC50 in test [1] (setting [5]) was 0.25 to 0.5 µM; in test [2] (setting [6]), at least 5 µM.
As for `Cc1cc([C@@H](C)Nc2ccc(Cl)nc2C(=O)NS(C)(=O)=O)c2nc(C3CCN(c4nn(C)cc4F)CC3)n(C)c(=O)c2c1` [Compound 429, (R)-6-chloro-3-((1-(2-(1-(4-fluoro-1-methyl-1H-pyrazol-3-yl)piperidin-4-yl)-3,6-dimethyl-4-oxo-3,4-dihydroquinazolin-8-yl)ethyl)amino)-N-(methylsulfonyl) picolinamide], the IC50 is 0.25 to 0.5 µM in test [1] (setting [3]) and at least 5 µM in test [2] (setting [4]).
With `CCn1c(N2CCC(c3nc(C)n(C)n3)CC2)nc2c([C@@H](C)Nc3ccc(Cl)nc3C(=O)NS(C)(=O)=O)cc(C)cc2c1=O` [Compound 616, (R)-6-chloro-3-((1-(2-(4-(1,5-dimethyl-1H-1,2,4-triazol-3-yl)piperidin-1-yl)-3-ethyl-6-methyl-4-oxo-3,4-dihydroquinazolin-8-yl)ethyl)amino)-N-(methylsulfonyl) picolinamide], the figures for the IC50 in test [1] (setting [5]) and in test [2] (setting [6]) were below 0.25 µM and at least 5 µM, respectively.
On to `Cc1cc([C@@H](C)Nc2ccc(Cl)nc2C(=O)NS(C)(=O)=O)c2nc(C3CCCN(c4ncc(F)cn4)C3)n(C)c(=O)c2c1` (mixture of isomers) [Compound 748, 6-chloro-3-(((1R)-1-(2-(1-(5-fluoropyrimidin-2-yl)piperidin-3-yl)-3,6-dimethyl-4-oxo-3,4-dihydroquinazolin-8-yl)ethyl)amino)-N-(methylsulfonyl) picolinamide], for which the IC50 in test [1] (setting [5]) is 0.5 to 1 µM; in test [2] (setting [6]) it was at least 5 µM.
`Cc1cc([C@@H](C)Nc2ccc(Cl)nc2C(=O)NS(C)(=O)=O)c2nc(N3C[C@@H]4[C@H](C3)[C@H]4c3cc4n(n3)CCO4)n(C)c(=O)c2c1` [Compound 520, 6-chloro-3-(((R)-1-(2-((1R,5S,6R)-6-(2,3-dihydropyrazolo[5,1-b]oxazol-6-yl)-3-azabicyclo[3.1.0]hexan-3-yl)-3,6-dimethyl-4-oxo-3,4-dihydroquinazolin-8-yl)ethyl)amino)-N-(methylsulfonyl) picolinamide]: the figures for the IC50 in test [1] (setting [5]) and in test [2] (setting [6]) were below 0.25 µM and 1 to 5 µM, respectively.
The corresponding values for `Cc1cc([C@@H](C)Nc2ccc(Cl)nc2C(=O)NS(C)(=O)=O)c2nc(-c3ccc(Nc4cnn(C)c4)c(F)c3)n(C)c(=O)c2c1` [Compound 806, (R)-6-chloro-3-((1-(2-(3-fluoro-4-((1-methyl-1H-pyrazol-4-yl)amino)phenyl)-3,6-dimethyl-4-oxo-3,4-dihydroquinazolin-8-yl)ethyl)amino)-N-(methylsulfonyl) picolinamide] are below 0.25 µM and 1 to 5 µM.
As for `Cc1cc([C@@H](C)Nc2ccc(Cl)nc2C(=O)NS(C)(=O)=O)c2nc(N3C[C@@H]4[C@H](C3)[C@H]4c3n[nH]cc3F)n(C)c(=O)c2c1` [Compound 454, 6-chloro-3-(((R)-1-(2-((1R,5S,6R)-6-(4-fluoro-1H-pyrazol-3-yl)-3-azabicyclo[3.1.0]hexan-3-yl)-3,6-dimethyl-4-oxo-3,4-dihydroquinazolin-8-yl)ethyl)amino)-N-(methylsulfonyl) picolinamide], the figures for the IC50 in test [1] (setting [5]) and in test [2] (setting [6]) were below 0.25 µM and 1 to 5 µM, respectively.
`Cc1cc([C@@H](C)Nc2ccc(Cl)nc2C(=O)NS(C)(=O)=O)c2nc(N3C[C@@H]4[C@H](C3)[C@H]4c3cc4n(n3)CCC4)n(C)c(=O)c2c1` [Compound 477, 6-chloro-3-(((R)-1-(2-((1R,5S,6R)-6-(5,6-dihydro-4H-pyrrolo[1,2-b]pyrazol-2-yl)-3-azabicyclo[3.1.0]hexan-3-yl)-3,6-dimethyl-4-oxo-3,4-dihydroquinazolin-8-yl)ethyl)amino)-N-(methylsulfonyl) picolinamide]: the IC50 in test [1] (setting [5]) was below 0.25 µM; in test [2] (setting [6]) it was 1 to 5 µM.
For `Cc1cc([C@@H](C)Nc2ccc(Cl)nc2C(=O)NS(C)(=O)=O)c2nc(N3Cc4ccc(C)nc4C3)n(C)c(=O)c2c1` [Compound 514, (R)-6-chloro-3-((1-(3,6-dimethyl-2-(2-methyl-5,7-dihydro-6H-pyrrolo[3,4-b]pyridin-6-yl)-4-oxo-3,4-dihydroquinazolin-8-yl)ethyl)amino)-N-(methylsulfonyl) picolinamide], the IC50 in test [1] (setting [5]) was below 0.25 µM; in test [2] (setting [6]), 1 to 5 µM.
Regarding `Cc1cc([C@@H](C)Nc2ccc(Cl)nc2C(=O)NS(C)(=O)=O)c2nc(N3CC[C@H](N(C)c4ncc(F)cn4)C3)n(C)c(=O)c2c1` [Compound 739, 6-chloro-3-(((R)-1-(2-((S)-3-((5-fluoropyrimidin-2-yl)(methyl)amino)pyrrolidin-1-yl)-3,6-dimethyl-4-oxo-3,4-dihydroquinazolin-8-yl)ethyl)amino)-N-(methylsulfonyl) picolinamide], the IC50 in test [1] (setting [5]) is 0.25 to 0.5 µM; in test [2] (setting [6]) it was at least 5 µM.
In the case of `Cc1cc([C@@H](C)Nc2ccc(Cl)nc2C(=O)NS(C)(=O)=O)c2nc(N3CCC(n4cc(C)nn4)CC3)n(C)c(=O)c2c1` [Compound 716, (R)-6-chloro-3-((1-(3,6-dimethyl-2-(4-(4-methyl-1H-1,2,3-triazol-1-yl)piperidin-1-yl)-4-oxo-3,4-dihydroquinazolin-8-yl)ethyl)amino)-N-(methylsulfonyl) picolinamide], the IC50 in test [1] (setting [5]) is below 0.25 µM; in test [2] (setting [6]), 1 to 5 µM.
